Values quoted from earlier work in PubChem BioAssay AID1259409 (Chemical Carcinogenesis Research Information System (CCRIS), 2018).

Tested on: rodent chemically induced tumor inhibition, incidence and multiplicity
Experiment: CCRIS tumor inhibitor studies
Conditions: Promoter: NONE USED

## O=C1O[C@H]([C@@H](O)CO)C(O)=C1O
Carcinogen: N-METHYL-N-NITROSOUREA, 684-93-5, Dose [Inhibitor]: 1% IN 20% FAT DIET DAILY STARTING 2 WK BEFORE START OF CARCINOGEN TREATMENT AND CONTINUING FOR DURATION OF STUDY (STUDY, Route [Inhibitor]: ORAL, Species: RAT, Strain/Sex: F344/FEMALE, Target Tissue: Type of Lesion: MAMMARY GLAND: FIBROADENOMA, Dose [Carcinogen]: 2 MG 2/WK FOR 2 WK
  tumour outcome (control, treated, inhibition, significance): 25%, 38%, -52%, not significant
Carcinogen: N-NITROSOMORPHOLINE, 59-89-2, Dose [Inhibitor]: 22.7 G/KG OF DIET 5 D/WK FOR 2 YR STARTING SIMULTANEOUSLY WITH CARCINOGEN TREATMENT AT 8 WK OF AGE AND CONTINUING FOR DU, Route [Inhibitor]: ORAL, Species: RAT, Strain/Sex: MRC/MALE, Target Tissue: Type of Lesion: FORESTOMACH: SQUAMOUS CELL PAPILLOMA, SQUAMOUS CELL CARCINOMA, Dose [Carcinogen]: 0.15 G/L DRINKING WATER 5 D/WK FOR 2 YR
  tumour outcome (control, treated, inhibition, significance): 1/41 (2%), 4/47 (9%), -350%, not calculated
Carcinogen: N-NITROSOMORPHOLINE, 59-89-2, Dose [Inhibitor]: 22.7 G/KG OF DIET 5 D/WK FOR 2 YR STARTING SIMULTANEOUSLY WITH CARCINOGEN TREATMENT AT 8 WK OF AGE AND CONTINUING FOR DU, Route [Inhibitor]: ORAL, Species: RAT, Strain/Sex: MRC/MALE, Target Tissue: Type of Lesion: LIVER: KUPFFER CELL SARCOMA, Dose [Carcinogen]: 0.15 G/L DRINKING WATER 5 D/WK FOR 2 YR
  tumour outcome (control, treated, inhibition, significance): 28/41 (68%), 34/47 (72%), -6%, not calculated
Carcinogen: N-NITROSOMORPHOLINE, 59-89-2, Dose [Inhibitor]: 22.7 G/KG OF DIET 5 D/WK FOR 2 YR STARTING SIMULTANEOUSLY WITH CARCINOGEN TREATMENT AT 8 WK OF AGE AND CONTINUING FOR DU, Route [Inhibitor]: ORAL, Species: RAT, Strain/Sex: MRC/MALE, Target Tissue: Type of Lesion: LIVER: LIVER CELL CARCINOMA, Dose [Carcinogen]: 0.15 G/L DRINKING WATER 5 D/WK FOR 2 YR
  tumour outcome (control, treated, inhibition, significance): 17/41 (41%), 20/47 (43%), -5%, not calculated
Carcinogen: TRANS-5-AMINO-3-[2-(5-NITRO-2-FURYL)VINYL]-1,2,4-OXADIAZOLE;SQL8506, 28754-68-9, Carcinogen: TRANS-5-AMINO-3-[2-(5-NITRO-2-FURYL)VINYL]-1,2,4-OXADIAZOLE;SQL8506, 28754-68-9, Dose [Inhibitor]: 2 G/KG 16 HR BEFORE THE 1ST CARCINOGEN DOSE FOLLOWED BY ADDITIONAL DOSES IMMEDIATELY BEFORE EACH DOSE OF CARCINOGEN (STU, Route [Inhibitor]: INTRAPERITONEAL, Species: MOUSE, Strain/Sex: CD-1/FEMALE, Target Tissue: Type of Lesion: HEMATOPOIETIC SYSTEM: MYELOID LEUKEMIA, Dose [Carcinogen]: 1 G/KG 2/D FOR 5 D EVERY 4 WK FOR 3 COURSES OF TREATMENT
  tumour outcome (control, treated, inhibition, significance): 7/137 (5%), 3/45 (7%), -40%, not calculated
Carcinogen: TRANS-5-AMINO-3-[2-(5-NITRO-2-FURYL)VINYL]-1,2,4-OXADIAZOLE;SQL8506, 28754-68-9, Carcinogen: TRANS-5-AMINO-3-[2-(5-NITRO-2-FURYL)VINYL]-1,2,4-OXADIAZOLE;SQL8506, 28754-68-9, Dose [Inhibitor]: 2 G/KG 16 HR BEFORE THE 1ST CARCINOGEN DOSE FOLLOWED BY ADDITIONAL DOSES IMMEDIATELY BEFORE EACH DOSE OF CARCINOGEN (STU, Route [Inhibitor]: INTRAPERITONEAL, Species: MOUSE, Strain/Sex: CD-1/FEMALE, Target Tissue: Type of Lesion: LYMPHOID TISSUE: NONTHYMIC LYMPHOMA, Dose [Carcinogen]: 1 G/KG 2/D FOR 5 D EVERY 4 WK FOR 3 COURSES OF TREATMENT
  tumour outcome (control, treated, inhibition, significance): 8/137 (6%), 2/45 (4%), 33%, not calculated
Carcinogen: TRANS-5-AMINO-3-[2-(5-NITRO-2-FURYL)VINYL]-1,2,4-OXADIAZOLE;SQL8506, 28754-68-9, Carcinogen: TRANS-5-AMINO-3-[2-(5-NITRO-2-FURYL)VINYL]-1,2,4-OXADIAZOLE;SQL8506, 28754-68-9, Dose [Inhibitor]: 2 G/KG 16 HR BEFORE THE 1ST CARCINOGEN DOSE FOLLOWED BY ADDITIONAL DOSES IMMEDIATELY BEFORE EACH DOSE OF CARCINOGEN (STU, Route [Inhibitor]: INTRAPERITONEAL, Species: MOUSE, Strain/Sex: CD-1/FEMALE, Target Tissue: Type of Lesion: LYMPHOID TISSUE: THYMIC LYMPHOMA, Dose [Carcinogen]: 1 G/KG 2/D FOR 5 D EVERY 4 WK FOR 3 COURSES OF TREATMENT
  tumour outcome (control, treated, inhibition, significance): 22/137 (16%), 7/45 (16%), 0%, not calculated
Carcinogen: TRANS-5-AMINO-3-[2-(5-NITRO-2-FURYL)VINYL]-1,2,4-OXADIAZOLE;SQL8506, 28754-68-9, Carcinogen: TRANS-5-AMINO-3-[2-(5-NITRO-2-FURYL)VINYL]-1,2,4-OXADIAZOLE;SQL8506, 28754-68-9, Dose [Inhibitor]: 2 G/KG 16 HR BEFORE THE 1ST CARCINOGEN DOSE FOLLOWED BY ADDITIONAL DOSES IMMEDIATELY BEFORE EACH DOSE OF CARCINOGEN (STU, Route [Inhibitor]: INTRAPERITONEAL, Species: MOUSE, Strain/Sex: CD-1/FEMALE, Target Tissue: Type of Lesion: STOMACH: SQUAMOUS CARCINOMA, Dose [Carcinogen]: 1 G/KG 2/D FOR 5 D EVERY 4 WK FOR 3 COURSES OF TREATMENT
  tumour outcome (control, treated, inhibition, significance): 60/137 (44%), 14/45 (31%), 30%, not calculated
Carcinogen: UV IRRADIATION, Dose [Inhibitor]: 0.3% IN DIET BEGINNING 10 D PRIOR TO CARCINOGEN DOSE AND CONTINUING FOR DURATION OF STUDY (STUDY DURATION: 27 WK), Route [Inhibitor]: ORAL, Species: MOUSE, Strain/Sex: SKH/HRL/FEMALE, Target Tissue: Type of Lesion: SKIN: CARCINOMA OR PAPILLOMA, Dose [Carcinogen]: 1.13 J/CM2/D INCREASED EVERY 2 WK TO A FINAL VALUE OF 1.97 J/CM2/D 5 D/WK FOR 15 WK (TOTAL EXPOSURE: 135 J/CM2)
  tumour outcome (control, treated, inhibition, significance): 23/44 (52%), 24/39 (62%), -19%, not calculated
Carcinogen: UV IRRADIATION, Dose [Inhibitor]: 5% IN DIET BEGINNING 10 D PRIOR TO CARCINOGEN DOSE AND CONTINUING FOR DURATION OF STUDY (STUDY DURATION: 27 WK), Route [Inhibitor]: ORAL, Species: MOUSE, Strain/Sex: SKH/HRL/FEMALE, Target Tissue: Type of Lesion: SKIN: PAPILLOMA OR CARCINOMA, Dose [Carcinogen]: 1.13 J/CM2/D INCREASED EVERY 2 WK TO A FINAL VALUE OF 1.97 J/CM2/D 5 D/WK FOR 15 WK (TOTAL EXPOSURE: 135 J/CM2)
  tumour outcome (control, treated, inhibition, significance): 23/44 (52%), 15/38 (39%), 25%, not calculated
Carcinogen: UV IRRADIATION, Dose [Inhibitor]: 10% IN DIET BEGINNING 10 D PRIOR TO CARCINOGEN DOSE AND CONTINUING FOR DURATION OF STUDY (STUDY DURATION: 27 WK), Route [Inhibitor]: ORAL, Species: MOUSE, Strain/Sex: SKH/HRL/FEMALE, Target Tissue: Type of Lesion: SKIN: PAPILLOMA OR CARCINOMA, Dose [Carcinogen]: 1.13 J/CM2/D INCREASED EVERY 2 WK TO A FINAL VALUE OF 1.97 J/CM2/D 5 D/WK FOR 15 WK (TOTAL EXPOSURE: 135 J/CM2)
  tumour outcome (control, treated, inhibition, significance): 23/44 (52%), 14/40 (35%), 33%, not calculated
Dose [Inhibitor]: 22.7 G/KG OF DIET 5 D/WK FOR 2 YR STARTING SIMULTANEOUSLY WITH CARCINOGEN TREATMENT AT 8 WK OF AGE AND CONTINUING FOR DU, Route [Inhibitor]: ORAL, Species: RAT, Strain/Sex: MRC/MALE, Target Tissue: Type of Lesion: FORESTOMACH: SQUAMOUS CELL PAPILLOMA, SQUAMOUS CELL CARCINOMA
  outcome: 0/37 (0%), 21/39 (54%), not calculated
Dose [Inhibitor]: 22.7 G/KG OF DIET 5 D/WK FOR 2 YR STARTING SIMULTANEOUSLY WITH CARCINOGEN TREATMENT AT 8 WK OF AGE AND CONTINUING FOR DU, Route [Inhibitor]: ORAL, Species: RAT, Strain/Sex: MRC/MALE, Target Tissue: Type of Lesion: LIVER: KUPFFER CELL SARCOMA
  tumour outcome (control, treated, inhibition, significance): 13/37 (35%), 7/39 (18%), 49%, not significant
Dose [Inhibitor]: 22.7 G/KG OF DIET 5 D/WK FOR 2 YR STARTING SIMULTANEOUSLY WITH CARCINOGEN TREATMENT AT 8 WK OF AGE AND CONTINUING FOR DU, Route [Inhibitor]: ORAL, Species: RAT, Strain/Sex: MRC/MALE, Target Tissue: Type of Lesion: LIVER: LIVER CELL CARCINOMA
  tumour outcome (control, treated, inhibition, significance): 12/37 (32%), 10/39 (26%), 19%, not significant
